“And” between values parts separate entries of the source, which are not always exact repeats. Identical values can stand only once.
Tested on: HEK293 cells
Test: Endogenous ceramide, HexCer and SM levels in cells treated 24 h, targeted LC-MS/MS
Assay type: cell-based
Parameters: Cer 18:1/24:0 content in HEK293 cells / Cer 18:1/24:1 content in HEK293 cells / HexCer 18:1/16:0 content in HEK293 cells / HexCer 18:1/18:0 content in HEK293 cells / HexCer 18:1/20:0 content in HEK293 cells / HexCer 18:1/22:0 content in HEK293 cells / Cer 18:1/16:0 content in HEK293 cells / Cer 18:1/18:0 content in HEK293 cells / Cer 18:1/20:0 content in HEK293 cells / Cer 18:1/22:0 content in HEK293 cells: unit not given here
Method: Lipids were then extracted using MTBE/methanol/water as described above.
HEK293 cell culture experiment: Levels of each lipid in P053-treated HEK293 cells were normalised to the mean of the vehicle control group, and each concentration was compared to the control using ANOVA with Dunnett’s post-test. P values were adjusted for multiple comparisons in GraphPad PRISM.
Supplementary Figure 1. Ceramide, SM, and HexCer levels in HEK293 cells treated with
P053. Absolute lipid levels were determined by targeted LC-MS/MS, relative to external
standard curves. Results are mean ± SEM (n = 4) from one of two identical experiments.
Statistically significant results, based on two independent experiments, are as indicated in
Figure 2b-d. Raw data for these figures is provided in Supplementary Data File 1.

[1] = HEK293 cells, 24 h, P053 300 nM
[2] = P053 10 nM, replicates, raw data Suppl Fig 1

C[C@@](N)(CO)CCc1ccc(OCc2ccc(Cl)c(Cl)c2)cc1 [P053, (S)-2-amino-4-(4-(3,4-dichlorobenzyloxy)phenyl)-2-methylbutan-1-ol]
16:0 SM level [1]: 91.5762 percentage of the vehicle control group and 97.3304 percentage of the vehicle control group and 95.7086 percentage of the vehicle control group and 90.4865 percentage of the vehicle control group and 94.7045 percentage of the vehicle control group and 94.6107 percentage of the vehicle control group and 97.4329 percentage of the vehicle control group | 16:1 SM level [1]: 95.4131 percentage of the vehicle control group and 93.1931 percentage of the vehicle control group and 97.1412 percentage of the vehicle control group and 89.2518 percentage of the vehicle control group and 106.305 percentage of the vehicle control group and 110.099 percentage of the vehicle control group and 114.576 percentage of the vehicle control group | 18:0 Cer level [1]: 21.4642 percentage of the vehicle control group and 24.1123 percentage of the vehicle control group and 20.5881 percentage of the vehicle control group and 19.7155 percentage of the vehicle control group and 31.2852 percentage of the vehicle control group and 28.1026 percentage of the vehicle control group and 22.7669 percentage of the vehicle control group | 18:0 HexCer level [1]: 20.413 percentage of the vehicle control group and 33.7976 percentage of the vehicle control group and 27.9895 percentage of the vehicle control group and 24.1749 percentage of the vehicle control group and 31.4424 percentage of the vehicle control group and 25.6474 percentage of the vehicle control group and 28.2273 percentage of the vehicle control group | 18:0 SM level [1]: 51.9053 percentage of the vehicle control group and 55.6537 percentage of the vehicle control group and 52.9265 percentage of the vehicle control group and 58.2406 percentage of the vehicle control group and 58.0965 percentage of the vehicle control group and 68.5828 percentage of the vehicle control group | 18:1 SM level [1]: 49.0849 percentage of the vehicle control group and 55.9252 percentage of the vehicle control group and 57.6407 percentage of the vehicle control group and 49.9379 percentage of the vehicle control group and 59.4579 percentage of the vehicle control group and 65.5511 percentage of the vehicle control group and 62.889 percentage of the vehicle control group | 20:0 Cer level [1]: 93.6887 percentage of the vehicle control group and 101.721 percentage of the vehicle control group and 118.09 percentage of the vehicle control group and 85.7665 percentage of the vehicle control group and 100.615 percentage of the vehicle control group and 64.6288 percentage of the vehicle control group and 92.3762 percentage of the vehicle control group | 20:0 SM level [1]: 118.407 percentage of the vehicle control group and 108.075 percentage of the vehicle control group and 104.904 percentage of the vehicle control group and 101.736 percentage of the vehicle control group and 91.4298 percentage of the vehicle control group and 108.941 percentage of the vehicle control group and 75.5566 percentage of the vehicle control group | 22:0 Cer level [1]: 118.325 percentage of the vehicle control group and 95.8434 percentage of the vehicle control group and 96.1691 percentage of the vehicle control group and 93.2377 percentage of the vehicle control group and 117.011 percentage of the vehicle control group and 126.355 percentage of the vehicle control group and 127.853 percentage of the vehicle control group | 22:0 HexCer level [1]: 109.712 percentage of the vehicle control group and 101.896 percentage of the vehicle control group and 93.6786 percentage of the vehicle control group and 100.98 percentage of the vehicle control group and 134.335 percentage of the vehicle control group and 123.952 percentage of the vehicle control group and 138.922 percentage of the vehicle control group | 22:0 SM level [1]: 115.888 percentage of the vehicle control group and 97.5579 percentage of the vehicle control group and 89.8927 percentage of the vehicle control group and 119.666 percentage of the vehicle control group and 127.143 percentage of the vehicle control group and 125.883 percentage of the vehicle control group and 147.638 percentage of the vehicle control group | 22:1 SM level [1]: 108.27 percentage of the vehicle control group and 122.085 percentage of the vehicle control group and 110.7 percentage of the vehicle control group and 101.001 percentage of the vehicle control group and 122.515 percentage of the vehicle control group and 112.931 percentage of the vehicle control group and 116.965 percentage of the vehicle control group | 24:0 HexCer level [1]: 104.713 percentage of the vehicle control group and 95.2413 percentage of the vehicle control group and 95.3365 percentage of the vehicle control group and 92.7673 percentage of the vehicle control group and 114.448 percentage of the vehicle control group and 102.627 percentage of the vehicle control group and 132.114 percentage of the vehicle control group | 24:0 SM level [1]: 113.274 percentage of the vehicle control group and 99.4416 percentage of the vehicle control group and 98.6316 percentage of the vehicle control group and 91.5407 percentage of the vehicle control group and 114.934 percentage of the vehicle control group and 115.44 percentage of the vehicle control group and 155.315 percentage of the vehicle control group | 24:1 Cer level [1]: 111.319 percentage of the vehicle control group and 96.194 percentage of the vehicle control group and 99.387 percentage of the vehicle control group and 100.62 percentage of the vehicle control group and 125.506 percentage of the vehicle control group and 116.048 percentage of the vehicle control group and 122.55 percentage of the vehicle control group | 24:1 HexCer level [1]: 99.7739 percentage of the vehicle control group and 98.9226 percentage of the vehicle control group and 100.626 percentage of the vehicle control group and 98.0727 percentage of the vehicle control group and 98.7766 percentage of the vehicle control group and 107.494 percentage of the vehicle control group and 117.137 percentage of the vehicle control group | 24:1 SM level [1]: 105.1 percentage of the vehicle control group and 102.826 percentage of the vehicle control group and 108.435 percentage of the vehicle control group and 97.4023 percentage of the vehicle control group and 115.741 percentage of the vehicle control group and 108.576 percentage of the vehicle control group and 128.227 percentage of the vehicle control group | Cer 18:1/16:0 content in HEK293 cells [2]: 22.4895 and 20.1065 and 20.2227 and 20.5646 | Cer 18:1/18:0 content in HEK293 cells [2]: 6.1592 and 6.073 and 6.699 and 5.451 | Cer 18:1/20:0 content in HEK293 cells [2]: 0.6713 and 0.9209 and 0.7221 and 0.8599 | Cer 18:1/22:0 content in HEK293 cells [2]: 56.12 and 63.3729 and 65.2079 and 63.3152
